Assay results from patent EP0545911B1, “Lanthionine-containing bacteriocin compositions for use as bactericides” (APPLIED MICROBIOLOGY, INC., priority 1988, dated 1996).

Tests used:
Assay type in all cases: cell-based
Streptococcus agalactiae = assay: Bactericidal activity (percent bacterial survival, CFU count) in milk at 37°C; conditions: for % survival at 2hr: Monolaurin 0 %
Experimental: (§1) All tests in the following examples were performed at 37°C. The efficacy of the enhanced broad range bactericides was determined by assaying bactericidal activity as measured by the percent bacterial survival after treatment with the bactericide. Generally, after incubation of a 10^7 cell per ml suspension of target species with the novel bactericide for specified lengths of time, bacteria were collected by centrifugation for 2 minutes. The bacterial pellet was washed free of the bactericide with a rescue buffer, termed herein Phage buffer (50mM Tris-HCl buffer pH 7.8, 1mM MgSO4, 4mM CaCl2, 0.1 M NaCl, and 0.1% gelatin), resuspended and serially diluted into Phage buffer, and […] of the suspended bacteria were spread on nutrient agar plates. Surviving bacteria were determined by scoring colony forming units (CFU) after incubation for 24-48 hours at 37°C. An effective bactericide according to this invention is one which allows less than 0.1% of the initial viable count of the bacteria to survive.
Thus, when the application of nisin is limited by its available activity, a bactericide comprising nisin with a surfactant can be expected to be more useful.

Listeria monocytogenes [1] = assay: as above
Experimental: as §1

Listeria monocytogenes [2] = conditions: monooleate by itself; milk
Experimental: as §1

In the case of `CCCCCCCCCCCC(=O)OCC(O)CO` (stereo not drawn) [Monolaurin, monolaurin], the viability at 0.01 % (Streptococcus agalactiae; Streptococcus agalactiae, 2 h, Nisin 0 µg/ml, Monolaurin 0.01 %, 37°C, initial viable counts 6.0 x 10^7 cfu/ml) is reported as 100%, the viability at 0.1 % (Streptococcus agalactiae; Streptococcus agalactiae, 2 h, Nisin 0 µg/ml, Monolaurin 0.1 %, 37°C, initial viable counts 6.0 x 10^7 cfu/ml) is reported as 4.5% and the “bactericidal activity towards Streptococcus agalactiae (in words)” value (Streptococcus agalactiae; monolaurin alone at concentrations up to 0.1%) is reported as “little significant bactericidal activity”.
In the case of “Nisin (ITSISLCTPGCKTGALMGCNMKTATCHCSIHVSK; not fully specified; Lantibiotic nisin-A; UniProt P13068 24-57, looked up) [polypeptide with antimicrobial properties produced by strains of Streptococcus lactis; lanthionine-containing peptide bacteriocin, known food preservative]”, the “% survival at 2hr” value (Listeria monocytogenes [1]; Nisin 100 µg/ml, Monooleate 0 %, milk, 37°C, initial viable count 5.0 x 10^7 cfu/ml) is reported as 0.56%, the “available nisin activity towards L. monocytogenes (in words)” value (Listeria monocytogenes [1]; nisin alone, complex medium like milk) is reported as “restricted” and the “% survival at 2hr” value (Streptococcus agalactiae; Nisin 0.02 µg/ml, 37°C, initial viable counts 6.0 x 10^7 cfu/ml) is reported as 100%. The “% survival at 2hr” value (Streptococcus agalactiae; Nisin 0.2 µg/ml, 37°C, initial viable counts 6.0 x 10^7 cfu/ml) was 2.2% and the “bactericidal activity in milk (in words)” value (Streptococcus agalactiae; nisin alone at concentrations up to 0.2 µg.ml) was “does not exhibit significant bactericidal activity”.
With glyceride monooleate the “bactericidal activity towards L. monocytogenes (in words)” value (Listeria monocytogenes [2]) was “no bactericidal activity”.
